Test results: patent US11453660B2, “Androgen receptor and glucocorticoid receptor modulators” (ONCOSTELLAE, S.L., priority 2017, dated 2022)
pIC50: −log10 of the molar value. Structures can show the parent of a compound that is named as a salt.

Key:
[1] = target: T1, Rat Androgen Receptor (Rattus norvegicus, UniProt P15207); experiment: Rat Androgen Receptor Binding (polarscreen AR competitor assay, fluorescence polarization); details: displacement of Fluormone AL Green, 4 hours at RT, read-out: AR rat-fluorimetric
T1 construct: purchased Life Technologies A15880
T1 sequence (P15207 646-902 limits assumed): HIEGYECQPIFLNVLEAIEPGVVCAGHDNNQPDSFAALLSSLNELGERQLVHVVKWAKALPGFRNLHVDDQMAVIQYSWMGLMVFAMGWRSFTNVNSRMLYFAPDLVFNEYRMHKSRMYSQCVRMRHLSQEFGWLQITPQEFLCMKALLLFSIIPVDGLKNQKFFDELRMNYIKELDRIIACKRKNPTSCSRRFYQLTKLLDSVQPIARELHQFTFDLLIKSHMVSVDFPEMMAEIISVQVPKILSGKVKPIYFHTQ
Method: Pharmacological Activity Rat Androgen Receptor Binding
The assay was carried out following the instructions of polarscreen AR competitor assay green kit (Life Technologies, Cat #.: A15880). Briefly, the test is based on measuring the changes of fluorescence polarization shown by the Fluormone AL Green. Thus, when the Fluormone is bound to the receptor, a fluorescence polarization is observed that diminishes when a ligand competes for the receptor binding site and the Fluormone gets displaced.
The inhibition values for each of the compounds are measured in duplicate at 1 and 10 μM and the plate is incubated for 4 hours at RT. Fluorescence polarization is the measured in a Tecan Infinite M1000 Pro reader (λexc=485 nm, λem=535 nm). In order to obtain a dose-response curve and calculate the potency of inhibition (expressed as IC50) for AR, a series of 1:10 dilutions in test in 1× buffer from 10 μM to 0.1 nM for each compound was carried out.

[2] = target: T2, human androgen receptor (Homo sapiens, UniProt P10275, T878A); experiment: Human Androgen Receptor Binding (radioligand binding, LnCap prostate cancer cell line); details: LnCap cells, displacement of [^3H]-methyltrienolone, 2 hours at 37° C.; read-out: AR LNCaP
T2 construct: endogenously expressed human androgen receptor using the LnCap prostate cancer cell line; endogenous in cells; host or cells: LNCaP prostate cancer cell line (whole cells)
T2 sequence (P10275 1-920 T878A): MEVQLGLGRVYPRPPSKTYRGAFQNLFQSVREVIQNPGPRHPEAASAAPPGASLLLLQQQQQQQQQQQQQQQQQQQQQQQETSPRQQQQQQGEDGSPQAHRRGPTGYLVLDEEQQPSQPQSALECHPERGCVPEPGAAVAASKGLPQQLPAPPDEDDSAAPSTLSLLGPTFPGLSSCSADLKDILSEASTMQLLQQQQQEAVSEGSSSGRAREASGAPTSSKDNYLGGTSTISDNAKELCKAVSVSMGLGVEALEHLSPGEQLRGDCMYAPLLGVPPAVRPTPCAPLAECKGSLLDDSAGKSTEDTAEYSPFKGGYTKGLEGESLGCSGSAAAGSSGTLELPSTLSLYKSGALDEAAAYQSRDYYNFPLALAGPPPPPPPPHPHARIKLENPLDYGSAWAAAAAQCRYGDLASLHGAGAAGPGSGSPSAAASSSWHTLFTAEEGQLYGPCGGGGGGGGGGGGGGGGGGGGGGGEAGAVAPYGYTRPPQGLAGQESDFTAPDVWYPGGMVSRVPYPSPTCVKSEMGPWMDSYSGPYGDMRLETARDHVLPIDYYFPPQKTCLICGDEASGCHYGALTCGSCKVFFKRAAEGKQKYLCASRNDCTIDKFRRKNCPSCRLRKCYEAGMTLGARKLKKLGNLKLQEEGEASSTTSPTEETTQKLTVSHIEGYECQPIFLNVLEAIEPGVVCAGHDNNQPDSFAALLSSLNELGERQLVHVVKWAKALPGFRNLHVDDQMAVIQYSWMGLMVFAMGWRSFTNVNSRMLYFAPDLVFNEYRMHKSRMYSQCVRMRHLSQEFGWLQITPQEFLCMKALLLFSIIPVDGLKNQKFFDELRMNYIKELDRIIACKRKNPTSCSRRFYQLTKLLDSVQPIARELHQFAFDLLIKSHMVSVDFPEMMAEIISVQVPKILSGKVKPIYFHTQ
How it was run: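 Whole-cell displacement of [3H]-methyltrienolone from endogenous AR (T878A) in LnCap cells, in RPMI with 0.1% BSA and triamcinolone acetonide. Compounds 10 μM to 0.1 nM in 1:10 steps, 2 h at 37 °C; cells washed, SDS-lysed, bound radioactivity by scintillation counting for IC50.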

[3] = target: T3, Human Glucocorticoid Receptor (Homo sapiens, UniProt P04150); experiment: Competition Binding in IM-9 Human Glucocorticoid Receptor (GR IM-9); details: cytosol from IM-9 cell line, 1.5 nM [3H]-Dexamethasone, 4° C. for 6 hours
T3 construct: endogenous in cells; host or cells: cytosol from IM-9 cell line
T3 sequence (P04150 1-777): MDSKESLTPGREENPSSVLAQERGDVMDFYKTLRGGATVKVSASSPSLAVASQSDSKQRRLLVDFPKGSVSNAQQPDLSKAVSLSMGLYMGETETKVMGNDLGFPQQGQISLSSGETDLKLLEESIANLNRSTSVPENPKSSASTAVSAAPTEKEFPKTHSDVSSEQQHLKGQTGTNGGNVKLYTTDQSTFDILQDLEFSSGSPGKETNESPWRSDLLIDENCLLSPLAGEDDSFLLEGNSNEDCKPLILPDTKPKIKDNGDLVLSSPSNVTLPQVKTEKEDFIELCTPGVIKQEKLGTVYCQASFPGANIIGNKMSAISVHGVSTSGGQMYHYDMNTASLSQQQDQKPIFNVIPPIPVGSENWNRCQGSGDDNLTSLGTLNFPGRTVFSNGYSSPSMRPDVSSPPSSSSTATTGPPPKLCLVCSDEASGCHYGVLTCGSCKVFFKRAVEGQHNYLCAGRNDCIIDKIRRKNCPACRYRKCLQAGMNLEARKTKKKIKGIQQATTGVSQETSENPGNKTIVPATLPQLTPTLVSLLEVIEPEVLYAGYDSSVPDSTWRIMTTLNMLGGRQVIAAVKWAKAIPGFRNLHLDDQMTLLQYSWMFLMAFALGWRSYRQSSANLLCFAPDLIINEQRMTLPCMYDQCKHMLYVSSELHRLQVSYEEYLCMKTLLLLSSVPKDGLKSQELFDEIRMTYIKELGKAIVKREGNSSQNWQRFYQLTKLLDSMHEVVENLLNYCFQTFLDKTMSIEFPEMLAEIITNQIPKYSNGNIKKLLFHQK
How it was run: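 Radioligand competition using 100 μg IM-9 cell cytosol and 1.5 nM [3H]-dexamethasone, incubated 6 h at 4° C in TES/molybdate buffer, pH 7.4. Filtration on PEI-treated GF/B filters, scintillation counting; nonspecific binding defined with 10 μM triamcinolone.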

Structure (SMILES) | pIC50 [1] | pIC50 [2] | pIC50 [3]
CC(=O)C1=C(C)NC(C)=C(C(=O)OCC2CC2)C1c1csc2ccccc12 (stereo not shown) [Example C6, Cyclopropylmethyl 5-acetyl-4-(benzo[b]thiophen-3-yl)-2,6-dimethyl-1,4-dihydropyridine-3-carboxylate] | 6.00 to 7.00 | 6.00 to 7.00 | > 7.00
COC(=O)C1=C(CF)NC(C)=C(C(C)=O)C1c1csc2ccccc12 (stereo not shown) [Example C20, Methyl 5-acetyl-4-(benzo[b]thiophen-3-yl)-2-(fluoromethyl)-6-methyl-1,4-dihydropyridine-3-carboxylate] | 6.00 to 7.00 | 6.00 to 7.00 | 
CC(=O)C1=C(C)NC(C)=C(C(=O)OCC2CCCC2)C1c1csc2ncccc12 (stereo not shown) [Example C35, Cyclopentylmethyl 5-acetyl-2,6-dimethyl-4-(thieno[2,3-b]pyridin-3-yl)-1,4-dihydropyridine-3-carboxylate] | 6.00 to 7.00 |  | > 7.00
CC1=C(C#N)C(c2csc3ccccc23)C(C#N)=C(C)N1 [Example E1, 4-(Benzo[b]thiophen-3-yl)-2,6-dimethyl-1,4-dihydropyridine-3,5-dicarbonitrile] | > 7.00 | > 7.00 | 
CC(=O)C1=C(C)NC(C)=C(C(C)=O)C1c1csc2ccccc12 [Example G1, 1,1′-(4-(benzo[b]thiophen-3-yl)-2,6-dimethyl-1,4-dihydropyridine-3,5-diyl)diethanone] | > 7.00 | > 7.00 | 
CC(=O)C1=C(C)NC(C)=C(C(C)=O)C1c1csc2ncccc12 [Example H15, 1,1′-(2,6-Dimethyl-4-(thieno[2,3-b]pyridin-3-yl)-1,4-dihydropyridine-3,5-diyl)bis(ethan-1-one)] | > 7.00 | 6.00 to 7.00 | 

Other lines, results leading:

pIC50 [1] | pIC50 [2] | pIC50 [3] | Structure (SMILES)
≤ 6.00 |  |  | COC(=O)C1=C(C)NC(C)=C(C(C)=O)C1c1csc2ccc(C#N)cc12 (stereo not shown) [Example J13, Methyl 5-acetyl-4-(5-cyanobenzo[b]thiophen-3-yl)-2,6-dimethyl-1,4-dihydropyridine-3-carboxylate]
≤ 6.00 |  |  | COC(=O)C1=C(C)NC(C)=C(C(C)=O)C1c1csc2ccc(C(=O)O)cc12 (stereo not shown) [Example J14, 3-(3-acetyl-5-(methoxycarbonyl)-2,6-dimethyl-1,4-dihydropyridin-4-yl)benzo[b]thiophene-5-carboxylic acid]
≤ 6.00 |  |  | COC(=O)C1=C(C)NC(C)=C(C(C)=O)C1c1csc2ccc(C(=O)NC3CC3)cc12 (stereo not shown) [Example J15, Methyl 5-acetyl-4-(5-(cyclopropylcarbamoyl)benzo[b]thiophen-3-yl)-2,6-dimethyl-1,4-dihydropyridine-3-carboxylate]
≤ 6.00 |  |  | COC(=O)C1=C(C)NC(C)=C(C(C)=O)C1c1csc2ccc(C(=O)NCC3CC3)cc12 (stereo not shown) [Example J16, Methyl 5-acetyl-4-(5-((cyclopropylmethyl)carbamoyl)benzo[b]thiophen-3-yl)-2,6-dimethyl-1,4-dihydropyridine-3-carboxylate]
≤ 6.00 |  |  | COC(=O)C1=C(C)NC(C)=C(C(C)=O)C1c1csc2ccc(C(=O)N3CCN(C)CC3)cc12 (stereo not shown) [Example J17, Methyl 5-acetyl-2,6-dimethyl-4-(5-(4-methylpiperazine-1-carbonyl)benzo[b]thiophen-3-yl)-1,4-dihydropyridine-3-carboxylate]
≤ 6.00 |  |  | COC(=O)C1=C(C)NC(C)=C(C(C)=O)C1c1csc2ccc(C(=O)N3CCOCC3)cc12 (stereo not shown) [Example J18, Methyl 5-acetyl-2,6-dimethyl-4-(5-(morpholine-4-carbonyl)benzo[b]thiophen-3-yl)-1,4-dihydropyridine-3-carboxylate]
≤ 6.00 |  |  | COC(=O)C1=C(C)NC(C)=C(C(C)=O)C1c1csc2ccncc12 (stereo not shown) [Example J19, Methyl 5-acetyl-2,6-dimethyl-4-(thieno[3,2-c]pyridin-3-yl)-1,4-dihydropyridine-3-carboxylate]
6.00 to 7.00 |  |  | COC(=O)C1=C(C)NC(C)=C(C(C)=O)C1c1csc2cnccc12 (stereo not shown) [Example J20, Methyl 5-acetyl-2,6-dimethyl-4-(thieno[2,3-c]pyridin-3-yl)-1,4-dihydropyridine-3-carboxylate]
> 7.00 | > 7.00 |  | COC(=O)C1=C(C)NC(C)=C(C(C)=O)C1c1csc2ncccc12 (stereo not shown) [Example J21, Methyl 5-acetyl-2,6-dimethyl-4-(thieno[2,3-b]pyridin-3-yl)-1,4-dihydropyridine-3-carboxylate]
≤ 6.00 |  |  | COC(=O)C1=C(C2CC2)NC(C2CC2)=C(C(C)=O)C1c1csc2ccccc12 (stereo not shown) [Example J24, Methyl 5-acetyl-4-(benzo[b]thiophen-3-yl)-2,6-dicyclopropyl-1,4-dihydropyridine-3-carboxylate]
6.00 to 7.00 |  |  | COC(=O)C1=C(N)NC(C)=C(C(C)=O)C1c1csc2ccccc12 (stereo not shown) [Example K1, Methyl 5-acetyl-2-amino-4-(benzo[b]thiophen-3-yl)-6-methyl-1,4-dihydropyridine-3-carboxylate hydrochloride]
≤ 6.00 |  |  | COC(=O)C1=C(N)NC(C)=C(C(C)=O)C1c1csc2ccccc12 (stereo not shown) [Example K2, Methyl 5-acetyl-2-amino-4-(benzo[b]thiophen-3-yl)-6-methyl-1,4-dihydropyridine-3-carboxylate trifluoromethanesulfonate]
≤ 6.00 |  |  | CC(=O)C1=C(C)NC(C)=C(C(=O)OCc2cncc(-c3cccnc3)c2)C1c1csc2ncccc12 (stereo not shown) [Example L8, [3,3′-bipyridin]-5-ylmethyl 5-acetyl-2,6-dimethyl-4-(thieno[2,3-b]pyridin-3-yl)-1,4-dihydropyridine-3-carboxylate]
≤ 6.00 |  |  | CC(=O)C1=C(C)NC(C)=C(C(C)=O)C1c1csc2ccc(-c3cccnc3)cc12 [Example M1, 1,1′-(2,6-dimethyl-4-(5-(pyridin-3-yl)benzo[b]thiophen-3-yl)-1,4-dihydro-pyridine-3,5-diyl)diethanone]
